Source: patent US20030203975A1, “Anti-cancer agents” (priority 1998, published 2003)

How the values were obtained:
[1] = In vitro cytotoxicity against CHO cell lines (MTT assay); assay type: cell-based; conditions: Chinese hamster, MTT assay after 24 hours exposure
Experimental: Chinese Hamster Ovary (CHO) cell lines were grown as monolayers in Ham's F-10 nutrient mixture supplemented with 5% foetal calf serum and 5% heat-inactivated newborn calf serum. All experiments were performed on cells within 10 passages of each other, during which period phenotypes remained stable. All anthraquinone/amino acid conjugates were dissolved in water and not more than 0.01% DMSO. Activity was determined by an MTT assay after 24 hours exposure using essentially the method of Plumb et al (Plumb, J., Milroy, R and Kaye, S. B., 1989, Effects of the pH dependence of 3-([…])-2,5-diphenyl tetrazolium bromide formazan absorption on chemosensitivity, Cancer Research, 49: 4435-4440). Characteristics of the cell lines are described in full in Cummings et al 1996, Biochem.Pharmacol. 52: 979-990.

Topoisomerase I = target: T1, Topoisomerase I (Homo sapiens, UniProt P11387); assay: Topo I relaxation assay; assay type: biochemical; conditions: unit not given; compound at 1, 10, 25 and 50 μM in protocol
T1 sequence (P11387 1-765): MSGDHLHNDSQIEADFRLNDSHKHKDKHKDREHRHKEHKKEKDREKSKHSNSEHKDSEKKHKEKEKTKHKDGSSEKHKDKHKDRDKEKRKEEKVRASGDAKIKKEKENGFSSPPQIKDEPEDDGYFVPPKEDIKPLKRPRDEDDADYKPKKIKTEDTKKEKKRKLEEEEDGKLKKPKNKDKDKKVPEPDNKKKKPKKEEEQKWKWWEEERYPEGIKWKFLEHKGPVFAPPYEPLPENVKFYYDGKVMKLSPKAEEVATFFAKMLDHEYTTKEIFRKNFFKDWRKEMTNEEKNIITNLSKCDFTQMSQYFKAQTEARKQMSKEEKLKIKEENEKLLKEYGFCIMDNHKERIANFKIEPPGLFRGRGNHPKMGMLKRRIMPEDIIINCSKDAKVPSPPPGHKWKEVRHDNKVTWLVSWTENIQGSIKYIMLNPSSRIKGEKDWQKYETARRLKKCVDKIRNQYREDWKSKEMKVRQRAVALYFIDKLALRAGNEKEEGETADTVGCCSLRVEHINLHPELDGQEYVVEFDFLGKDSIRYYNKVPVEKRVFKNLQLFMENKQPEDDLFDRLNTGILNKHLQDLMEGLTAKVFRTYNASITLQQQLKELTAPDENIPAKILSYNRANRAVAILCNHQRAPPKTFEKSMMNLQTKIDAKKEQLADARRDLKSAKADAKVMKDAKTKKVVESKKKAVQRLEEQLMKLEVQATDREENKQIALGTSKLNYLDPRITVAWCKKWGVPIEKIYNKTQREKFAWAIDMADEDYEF
Description: Topo I Relaxation Assay Protocol.

Topoisomerase IIα = Topoisomerase IIα (Homo sapiens, UniProt P11388); assay: Topo II cleavage assay; assay type: biochemical; set-up: key: ‘—’ = Not active; conditions: unit not given; compound at 1, 10, 25 and 50 μM in protocol
Chain of Topoisomerase IIα (P11388 whole entry): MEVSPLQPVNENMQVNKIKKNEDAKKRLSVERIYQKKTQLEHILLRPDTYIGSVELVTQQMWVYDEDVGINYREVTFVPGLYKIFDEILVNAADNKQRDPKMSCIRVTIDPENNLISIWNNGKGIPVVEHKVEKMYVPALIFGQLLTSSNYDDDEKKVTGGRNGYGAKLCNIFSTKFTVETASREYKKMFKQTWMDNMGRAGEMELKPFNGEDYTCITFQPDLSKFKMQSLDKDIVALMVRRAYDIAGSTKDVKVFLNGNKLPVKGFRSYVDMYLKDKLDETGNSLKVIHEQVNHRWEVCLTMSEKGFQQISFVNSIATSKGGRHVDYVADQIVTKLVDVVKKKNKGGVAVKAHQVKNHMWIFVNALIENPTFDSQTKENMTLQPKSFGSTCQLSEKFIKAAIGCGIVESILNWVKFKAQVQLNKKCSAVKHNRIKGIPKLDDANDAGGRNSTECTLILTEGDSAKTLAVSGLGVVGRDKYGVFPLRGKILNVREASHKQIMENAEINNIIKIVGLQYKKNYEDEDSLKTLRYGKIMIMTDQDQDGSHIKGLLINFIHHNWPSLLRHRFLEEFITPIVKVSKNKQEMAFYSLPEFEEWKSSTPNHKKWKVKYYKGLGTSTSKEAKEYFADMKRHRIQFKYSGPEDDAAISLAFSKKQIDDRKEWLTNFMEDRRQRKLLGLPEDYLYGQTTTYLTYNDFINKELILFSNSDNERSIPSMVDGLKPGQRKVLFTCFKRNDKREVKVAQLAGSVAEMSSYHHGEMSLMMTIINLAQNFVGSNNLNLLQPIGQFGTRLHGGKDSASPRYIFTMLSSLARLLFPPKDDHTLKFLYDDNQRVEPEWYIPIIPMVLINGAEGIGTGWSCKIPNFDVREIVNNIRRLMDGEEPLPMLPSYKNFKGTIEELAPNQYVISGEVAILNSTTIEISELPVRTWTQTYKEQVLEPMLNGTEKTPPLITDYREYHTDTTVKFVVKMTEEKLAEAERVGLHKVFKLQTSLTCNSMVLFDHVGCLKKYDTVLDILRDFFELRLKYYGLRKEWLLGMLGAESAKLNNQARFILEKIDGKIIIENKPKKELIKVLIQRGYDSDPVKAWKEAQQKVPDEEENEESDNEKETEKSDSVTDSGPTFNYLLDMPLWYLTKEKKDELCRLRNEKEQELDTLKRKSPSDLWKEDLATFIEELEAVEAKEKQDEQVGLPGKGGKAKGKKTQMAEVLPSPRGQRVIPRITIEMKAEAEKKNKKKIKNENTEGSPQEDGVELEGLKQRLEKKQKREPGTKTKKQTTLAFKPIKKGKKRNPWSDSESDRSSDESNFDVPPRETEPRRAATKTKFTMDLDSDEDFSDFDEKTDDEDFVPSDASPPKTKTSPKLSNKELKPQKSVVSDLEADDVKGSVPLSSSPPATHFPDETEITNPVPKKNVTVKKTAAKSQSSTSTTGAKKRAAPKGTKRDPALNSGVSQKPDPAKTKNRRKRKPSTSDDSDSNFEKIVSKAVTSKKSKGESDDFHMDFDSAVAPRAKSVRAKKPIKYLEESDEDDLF
Experimental: Topo II 5 μl (1-1 μg); […] Results are included in Table 3 below.

[2] = system: DNA: Calf thymus sodium salt; assay: DNA binding assay, Hoechst dye displacement; set-up: key: NB = Not binding; conditions: concentration required to displace 50% of the Hoescht Dye; 20 μM DNA, 2 μM dye
Experimental: The propensity of selected compounds to bind to DNA in the absence of topos was measured in order to identify compounds that would bind weakly, or not at all. […] A […] was used determine binding constants of the compound to DNA by displacement of either ethidium bromide (an intercalator) or Hoechst dye 33258 (a groove binder) which form a DNA-bound fluorescent complex measured by fluorescence spectroscopy.
DNA Binding Assay Protocol
In order to detect the strength and mode of anthraquinone compound binding to DNA the displacement of known DNA binders was detected by measuring the fluorescence of a DNA/fluorescent compound complex. The addition of known concentrations of ethidium bromide, an interchelator, and Hoescht Dye, a groove binder, cause a fluorescent DNA/binder complex that can be detected and the fluorescence quantified. The addition of anthraquinone compounds displaces the interchelators or groove binders, depending on the compound mode of DNA binding, and therefore reduces the fluorescence accordingly. The preferred binding action of compounds can be quantified by determining the reduction in fluorescence resulting from a given concentration of compound. The quantification of a compounds ability to bind to DNA is expressed, as the concentration required to displace 50% of the ethidium bromide or Hoescht Dye, thus reducing the fluorescence by 50%. Therefore, the values produced are QE50 for ethidium, bromide, or QH50 for Hoescht Dye.
Compound: 300, 60, 10 and 10/6gM (1.66 μM) solution concentrations were prepared for use in the assay to produce a range of compound. Concentrations. 100, 200 and 300 μl of each dilution were used in the assay reaction. This provides a range of concentrations: −30, 20, 10, 6, 4, 2, 1, 0.67, 0.33, 0.17, 0.11, 0.06, 0.00 μM in the assay environment. Intermediate concentrations can be utilised to enhance the accuracy of the displacement concentration determination.
Buffer: 100 mM Tris, NaCI 500 mM. DNA: Calf thymus sodium salt. Stock solution of 200 μM was prepared in 10× assay buffer. Dilution of DNA therefore provided the correct concentration of assay buffer in the assay cell.300 μg DNA was used in 3 ml reaction mixture therefore 20 μM DNA concentration. Hoescht Dye 2 μM final concentration, therefore 100 μl of a 60 μM stock solution was added to a 3 ml assay. Ethidium Bromide 2 μM final concentration therefore 100 μl of a 60 μM stock solution was added to a 3 ml assay. Distilled H2O Water was added to produce 3 ml reaction volume. Order of addition: 1. DNA, 2. Water, 3. Drug, 4. Dye
The assay was completed with both Hoescht Dye and Ethidium. Bromide for each compound. The ethidium bromide is a DNA inter-chelator, Hoescht Dye is a minor groove binder. 100, 200 and […] of the lowest compound dilution was assayed. This procedure was repeated with all further dilution's. This provided a curve of fluorescence intensity decrease with increasing compound concentration. QE50 and QH50 values were determined by extrapolating the concentration of compound at the point where the fluorescence intensity was reduced by 50%. Controls involving compound only and ethidium. bromide or Hoechst Dye without compound were carried out for each experiment. Two readings for each concentration of compound were performed per experiment, each experiment was repeated at least three times. Fluorometer: Perkin Elmer Luminescence Spectrometer LS 50B.

Compound | IC50 at 24 h ([1]; CHO-ADR-1 cells, ADR line) | IC50 at 24 h ([1]; CHO-ADR-r cells, ADR line) | IC50 at 24 h ([1]; CHO-K1 cells) | TopI Relax. (Topoisomerase I) | TopIIα Cleave. (Topoisomerase IIα) | QH50 Minor groove binding [2]
C[C@H](N)C(=O)OCCCCNc1cccc2c1C(=O)c1ccccc1C2=O.O=C(O)C(F)(F)F [Example 43, 1-[4-(L-alanyloxy)butylamino]anthracene-9,10-dione trifluoroacetate] | 6.6 µM | 25.2 µM | 54 µM | 25 | — | NB
C[C@@H](N)C(=O)OCCCCNc1cccc2c1C(=O)c1ccccc1C2=O.O=C(O)C(F)(F)F [Example 45, 1-[4-(D-alanyloxy)butylamino]anthracene-9,10-dione trifluoroacetate] | 46.3 µM | 31.5 µM | 40.5 µM | 25 | — | NB
